Results as given in ChEMBL document CHEMBL1201862, “PubChem BioAssay data set” (2004).
The source made the active and inactive calls.

Columns and labels:
[1] = miR-122 activators in hepatoma reporter cells, dose response, cell-based, Huh7 psiCHECK-miR122, Renilla luciferase, cherry-picked (AID 651956); type: functional;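 note: huh7 hepatoma cells stably carrying a psiCHECK-2 miR-122 sensor plasmid; renilla luciferase signal reporting endogenous miR-122 activity after 48 h compound exposure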
[2] = biological target: T1, Apoptotic protease-activating factor 1 (Homo sapiens, UniProt O14727); assay: SAR analysis of small molecule Activators of Apaf-1 in a Fluorescent assay.; type: functional; details: read-out: EC50_Mean;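 note: caspase-3 cleavage of fluorogenic Rh110 DEVD substrate downstream of apoptosome activation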
T1 sequence (O14727 whole entry): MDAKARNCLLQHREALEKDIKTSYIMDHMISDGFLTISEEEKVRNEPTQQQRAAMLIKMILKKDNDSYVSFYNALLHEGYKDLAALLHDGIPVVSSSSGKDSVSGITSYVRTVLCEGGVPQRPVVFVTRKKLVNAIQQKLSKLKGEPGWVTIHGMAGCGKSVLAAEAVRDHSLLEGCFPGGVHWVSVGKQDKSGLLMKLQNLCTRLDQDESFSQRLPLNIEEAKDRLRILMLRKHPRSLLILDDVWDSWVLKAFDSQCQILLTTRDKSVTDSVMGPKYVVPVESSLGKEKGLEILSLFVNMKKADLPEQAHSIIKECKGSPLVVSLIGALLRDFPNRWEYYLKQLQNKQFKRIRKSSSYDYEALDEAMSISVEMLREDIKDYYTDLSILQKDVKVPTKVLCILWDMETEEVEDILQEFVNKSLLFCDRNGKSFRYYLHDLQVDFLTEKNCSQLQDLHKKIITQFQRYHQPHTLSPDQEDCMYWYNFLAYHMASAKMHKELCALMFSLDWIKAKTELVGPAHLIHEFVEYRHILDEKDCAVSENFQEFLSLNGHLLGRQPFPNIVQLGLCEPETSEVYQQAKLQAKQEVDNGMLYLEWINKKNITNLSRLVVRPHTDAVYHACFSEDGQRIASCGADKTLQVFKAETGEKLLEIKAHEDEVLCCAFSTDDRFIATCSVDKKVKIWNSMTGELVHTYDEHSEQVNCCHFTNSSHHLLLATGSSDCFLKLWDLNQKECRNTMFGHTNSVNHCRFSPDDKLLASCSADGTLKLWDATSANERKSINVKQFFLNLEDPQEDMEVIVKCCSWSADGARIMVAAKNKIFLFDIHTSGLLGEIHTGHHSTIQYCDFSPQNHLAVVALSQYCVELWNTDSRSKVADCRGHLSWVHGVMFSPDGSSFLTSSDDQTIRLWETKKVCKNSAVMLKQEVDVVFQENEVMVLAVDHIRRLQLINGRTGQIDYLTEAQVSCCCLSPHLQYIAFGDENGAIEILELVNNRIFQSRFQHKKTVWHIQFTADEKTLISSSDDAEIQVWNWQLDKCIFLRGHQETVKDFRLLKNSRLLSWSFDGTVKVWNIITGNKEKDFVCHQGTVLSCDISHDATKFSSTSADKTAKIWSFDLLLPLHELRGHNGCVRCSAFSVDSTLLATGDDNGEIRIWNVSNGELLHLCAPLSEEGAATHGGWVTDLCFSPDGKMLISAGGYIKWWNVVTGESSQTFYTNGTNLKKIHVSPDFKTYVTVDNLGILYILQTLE

[3] = AlphaScreen signal interference compounds, dose response, artefact control for ARNT-TACC3 interaction inhibitor project, biochemical, luminescence, cherry-pick (AID 651705); type: functional;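 note: AlphaScreen bead proximity signal that flags compounds interfering with the detection technology; potency reflects signal decrease which marks the compound as an assay artifact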
[4] = DNA binding of candidate compounds, dose response, artefact control for RAD54 inhibitor project, biochemical, fluorescence polarization, cherry-pick (AID 651673); type: functional
[5] = biological target: DNA repair and recombination protein RAD54-like (Homo sapiens, UniProt Q92698); assay: inhibitors of human RAD54 branch migration, confirmation, biochemical, fluorescence, cherry-picked samples, dose series (AID 651657); type: functional
[6] = biological target: T2, DNA repair protein RAD52 homolog (Homo sapiens, UniProt P43351); type: functional, biochemical
T2 sequence (P43351 whole entry): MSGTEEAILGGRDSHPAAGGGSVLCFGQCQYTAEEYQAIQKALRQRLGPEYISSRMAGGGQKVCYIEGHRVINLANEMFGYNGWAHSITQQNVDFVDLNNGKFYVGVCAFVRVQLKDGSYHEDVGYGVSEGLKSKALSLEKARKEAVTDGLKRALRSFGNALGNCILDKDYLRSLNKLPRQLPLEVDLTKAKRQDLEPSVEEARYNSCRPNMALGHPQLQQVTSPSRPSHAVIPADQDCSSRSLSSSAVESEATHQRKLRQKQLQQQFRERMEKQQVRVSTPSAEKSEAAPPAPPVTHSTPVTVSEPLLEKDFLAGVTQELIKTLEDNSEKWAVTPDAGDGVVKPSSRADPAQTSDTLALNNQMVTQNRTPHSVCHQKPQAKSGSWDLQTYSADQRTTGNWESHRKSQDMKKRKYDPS

[7] = microbe, parasite or virus in culture; type: functional; details: Mycobacterium tuberculosis
[8] = biological target: T3, Scavenger receptor class B member 1 (Mus musculus, UniProt Q61009); assay: inhibitors of SR-BI dependent HDL uptake, dose response, ldlA[mSR-BI] CHO cells, fluorescence plate reader, dry powder, set 9 (AID 623880); type: functional, cell-based
T3 sequence (Q61009 whole entry): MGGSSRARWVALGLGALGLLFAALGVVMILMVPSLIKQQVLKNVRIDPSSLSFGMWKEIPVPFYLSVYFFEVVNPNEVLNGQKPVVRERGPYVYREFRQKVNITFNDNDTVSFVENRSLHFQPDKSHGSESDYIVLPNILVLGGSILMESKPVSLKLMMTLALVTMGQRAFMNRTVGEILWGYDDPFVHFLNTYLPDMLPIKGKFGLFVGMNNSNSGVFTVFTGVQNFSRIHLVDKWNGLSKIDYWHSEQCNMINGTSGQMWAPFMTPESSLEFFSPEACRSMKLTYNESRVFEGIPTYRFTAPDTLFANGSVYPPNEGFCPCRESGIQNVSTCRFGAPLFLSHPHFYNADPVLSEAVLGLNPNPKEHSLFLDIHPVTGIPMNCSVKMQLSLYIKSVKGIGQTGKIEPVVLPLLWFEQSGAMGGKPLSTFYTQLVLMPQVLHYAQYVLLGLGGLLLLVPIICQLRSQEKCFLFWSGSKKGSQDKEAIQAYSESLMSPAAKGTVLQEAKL

[9] = biological target: T3, Scavenger receptor class B member 1; assay: inhibitors of SR-BI-mediated HDL uptake, dose response, cell-based, ldlA[mSR-BI] CHO, DiI fluorescence, dry powder, set 10 (AID 624029); type: functional
[10] = biological target: T4, Protein disulfide-isomerase (Homo sapiens, UniProt P07237); assay: PDI inhibitors, insulin aggregation turbidity, dose response, biochemical, absorbance, cherry-picked samples (AID 602350); type: functional
T4 sequence (P07237 whole entry): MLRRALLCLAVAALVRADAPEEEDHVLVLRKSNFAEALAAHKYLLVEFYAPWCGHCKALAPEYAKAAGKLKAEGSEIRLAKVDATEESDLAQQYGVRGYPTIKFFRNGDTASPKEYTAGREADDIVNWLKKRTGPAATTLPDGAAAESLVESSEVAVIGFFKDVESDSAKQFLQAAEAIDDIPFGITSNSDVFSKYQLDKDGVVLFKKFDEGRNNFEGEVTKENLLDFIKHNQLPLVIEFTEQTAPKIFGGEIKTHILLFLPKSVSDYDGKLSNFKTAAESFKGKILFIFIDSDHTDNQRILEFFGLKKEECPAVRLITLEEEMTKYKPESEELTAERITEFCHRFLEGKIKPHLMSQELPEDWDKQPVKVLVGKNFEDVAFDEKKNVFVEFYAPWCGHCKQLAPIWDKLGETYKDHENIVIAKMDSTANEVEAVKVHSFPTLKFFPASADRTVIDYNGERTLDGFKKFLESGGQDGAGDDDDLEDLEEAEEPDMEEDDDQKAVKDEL

[11] = biological target: T4, Protein disulfide-isomerase; assay: PDI inhibitors, insulin turbidity readout, dose response, biochemical, absorbance, cherry-picked samples, set 2 (AID 624274); type: functional
Mu-type opioid receptor = Mu-type opioid receptor (Homo sapiens, UniProt P35372); type: functional, cell-based;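 note: U2OS cells with beta-arrestin recruitment to OPRM1 by beta-gal complementation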
Mu-type opioid receptor, sequence (P35372 whole entry): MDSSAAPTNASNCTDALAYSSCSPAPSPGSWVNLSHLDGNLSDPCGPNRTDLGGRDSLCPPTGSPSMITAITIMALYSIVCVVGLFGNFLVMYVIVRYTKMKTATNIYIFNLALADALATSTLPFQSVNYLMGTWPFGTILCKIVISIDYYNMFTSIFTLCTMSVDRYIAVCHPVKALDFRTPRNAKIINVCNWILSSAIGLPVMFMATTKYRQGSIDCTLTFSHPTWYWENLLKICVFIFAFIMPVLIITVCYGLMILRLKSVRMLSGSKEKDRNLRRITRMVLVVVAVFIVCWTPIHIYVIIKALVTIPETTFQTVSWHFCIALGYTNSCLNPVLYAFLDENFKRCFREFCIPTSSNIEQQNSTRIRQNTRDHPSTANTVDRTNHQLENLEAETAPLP

[12] = biological target: 5-hydroxytryptamine receptor 2A (Mus musculus, UniProt P35363); type: functional, cell-based;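 note: CHO-K1 cells with tagged receptor and beta-arrestin; agonist potency measured as compound-induced activation of the receptor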
5-hydroxytryptamine receptor 2A, sequence (P35363 whole entry): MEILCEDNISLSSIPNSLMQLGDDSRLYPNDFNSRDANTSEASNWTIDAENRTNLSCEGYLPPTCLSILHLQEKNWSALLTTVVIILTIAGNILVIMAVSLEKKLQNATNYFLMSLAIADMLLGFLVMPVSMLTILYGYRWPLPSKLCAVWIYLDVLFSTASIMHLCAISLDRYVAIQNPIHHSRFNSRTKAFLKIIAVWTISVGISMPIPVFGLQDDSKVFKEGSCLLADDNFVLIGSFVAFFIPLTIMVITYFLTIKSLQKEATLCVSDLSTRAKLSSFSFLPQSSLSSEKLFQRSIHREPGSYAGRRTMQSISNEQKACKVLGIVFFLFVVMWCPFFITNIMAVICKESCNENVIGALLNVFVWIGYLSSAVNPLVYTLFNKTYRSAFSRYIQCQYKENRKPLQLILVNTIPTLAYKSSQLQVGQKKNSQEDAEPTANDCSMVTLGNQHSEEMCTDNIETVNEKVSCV

Ephrin type-A receptor 4 = Ephrin type-A receptor 4 (Mus musculus, UniProt Q03137); assay: inhibitors of EphA4 binding to KYL peptide, primary screen, biochemical, colorimetric, mouse EphA4 (AID 689); type: functional
Ephrin type-A receptor 4, sequence (Q03137 whole entry): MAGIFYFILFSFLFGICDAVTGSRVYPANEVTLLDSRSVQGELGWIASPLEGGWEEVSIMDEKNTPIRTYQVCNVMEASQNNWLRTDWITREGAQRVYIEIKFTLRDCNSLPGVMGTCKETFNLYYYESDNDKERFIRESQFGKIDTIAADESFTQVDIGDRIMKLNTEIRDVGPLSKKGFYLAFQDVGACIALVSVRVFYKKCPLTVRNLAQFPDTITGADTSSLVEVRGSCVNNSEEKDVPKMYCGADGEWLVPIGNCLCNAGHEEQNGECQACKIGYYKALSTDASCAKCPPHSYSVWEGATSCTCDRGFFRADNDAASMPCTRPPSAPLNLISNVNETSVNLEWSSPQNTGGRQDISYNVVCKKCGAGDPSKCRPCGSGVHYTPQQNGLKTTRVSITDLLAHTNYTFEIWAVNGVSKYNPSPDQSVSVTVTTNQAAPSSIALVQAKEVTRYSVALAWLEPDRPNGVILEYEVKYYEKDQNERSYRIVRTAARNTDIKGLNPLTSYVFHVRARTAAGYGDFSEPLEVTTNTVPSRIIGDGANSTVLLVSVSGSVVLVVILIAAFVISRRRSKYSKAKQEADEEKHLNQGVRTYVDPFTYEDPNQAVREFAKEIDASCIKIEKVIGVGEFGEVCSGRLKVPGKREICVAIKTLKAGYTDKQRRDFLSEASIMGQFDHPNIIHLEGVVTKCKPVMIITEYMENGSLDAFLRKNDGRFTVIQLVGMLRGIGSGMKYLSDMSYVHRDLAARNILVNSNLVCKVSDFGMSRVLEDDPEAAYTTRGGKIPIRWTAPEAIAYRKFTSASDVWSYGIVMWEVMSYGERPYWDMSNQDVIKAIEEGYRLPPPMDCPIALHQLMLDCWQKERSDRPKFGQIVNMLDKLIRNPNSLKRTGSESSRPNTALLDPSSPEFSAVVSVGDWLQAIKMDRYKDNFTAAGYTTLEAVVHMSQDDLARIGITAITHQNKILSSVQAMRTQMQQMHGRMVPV

[13] = biological target: Induced myeloid leukemia cell differentiation protein Mcl-1 (Homo sapiens, UniProt Q07820); type: functional
Induced myeloid leukemia cell differentiation protein Mcl-1, sequence (Q07820 whole entry): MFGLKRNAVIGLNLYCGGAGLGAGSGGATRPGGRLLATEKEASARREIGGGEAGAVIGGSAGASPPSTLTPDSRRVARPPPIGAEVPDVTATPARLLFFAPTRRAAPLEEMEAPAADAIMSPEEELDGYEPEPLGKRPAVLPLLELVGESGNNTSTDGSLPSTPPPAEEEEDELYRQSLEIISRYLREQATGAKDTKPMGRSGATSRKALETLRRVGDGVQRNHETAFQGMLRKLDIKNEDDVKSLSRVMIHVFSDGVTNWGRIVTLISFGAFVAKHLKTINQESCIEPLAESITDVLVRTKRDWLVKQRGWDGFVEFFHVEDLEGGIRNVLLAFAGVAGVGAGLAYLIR

[14] = biological target: Eukaryotic translation initiation factor 4E (Mus musculus, UniProt P63073); assay: eIF4E–eIF4G protein interaction inhibitors, dose response, biochemical, TR-FRET (AID 855); type: functional;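 note: potency for disrupting eIF4E binding to eIF4GI seen as loss of FRET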
Eukaryotic translation initiation factor 4E, sequence (P63073 whole entry): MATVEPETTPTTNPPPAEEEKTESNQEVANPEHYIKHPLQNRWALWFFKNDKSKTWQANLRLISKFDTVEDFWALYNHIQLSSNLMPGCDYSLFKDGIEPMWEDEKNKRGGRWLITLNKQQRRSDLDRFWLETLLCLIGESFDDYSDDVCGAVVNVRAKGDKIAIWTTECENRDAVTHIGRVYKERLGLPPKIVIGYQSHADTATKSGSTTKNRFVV

[15] = biological target: DNA (cytosine-5)-methyltransferase 1 (Homo sapiens, UniProt P26358); assay: DNMT1 methyltransferase inhibitors, confirmation, biochemical, fluorescent molecular beacon (AID 602386); type: functional
[16] = biological target: T5, Rac GTPase-activating protein 1 (Homo sapiens, UniProt Q9H0H5); assay: MgcRacGAP GTPase-activating activity inhibitors, confirmation, biochemical, ADP Hunter fluorescence, primary and confirmatory (AID 624330); type: functional
T5 sequence (Q9H0H5 whole entry): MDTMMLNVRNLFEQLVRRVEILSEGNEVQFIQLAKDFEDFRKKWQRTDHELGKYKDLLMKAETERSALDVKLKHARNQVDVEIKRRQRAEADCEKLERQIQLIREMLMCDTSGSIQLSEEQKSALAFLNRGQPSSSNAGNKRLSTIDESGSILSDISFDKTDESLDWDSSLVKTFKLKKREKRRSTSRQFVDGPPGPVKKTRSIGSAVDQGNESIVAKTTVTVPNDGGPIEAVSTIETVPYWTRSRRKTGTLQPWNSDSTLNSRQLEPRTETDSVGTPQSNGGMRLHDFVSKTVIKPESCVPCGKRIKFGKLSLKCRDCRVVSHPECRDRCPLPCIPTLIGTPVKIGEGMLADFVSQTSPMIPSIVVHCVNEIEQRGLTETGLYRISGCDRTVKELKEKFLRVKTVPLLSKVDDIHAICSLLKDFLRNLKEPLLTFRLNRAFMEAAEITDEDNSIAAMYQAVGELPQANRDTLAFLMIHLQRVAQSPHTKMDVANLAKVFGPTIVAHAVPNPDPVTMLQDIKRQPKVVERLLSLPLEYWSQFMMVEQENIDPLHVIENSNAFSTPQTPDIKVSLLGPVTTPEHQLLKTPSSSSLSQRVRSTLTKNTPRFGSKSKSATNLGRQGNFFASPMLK

HEK293 = assay: inhibitors of LMP1-driven NF-kB reporter, dose response, cell-based, HEK293, luciferase, cherry-pick (AID 588343); type: functional; details: Homo sapiens
Interleukin-8 [17] = biological target: T6, Interleukin-8 (Homo sapiens, UniProt P10145); assay: Dose Response confirmation of uHTS small molecule hits for cystic fibrosis induced NFkb Inhibitors in a TNFa-induced IL8 counterscreen.; type: functional; details: read-out: IC50_Mean
T6 sequence (P10145 whole entry): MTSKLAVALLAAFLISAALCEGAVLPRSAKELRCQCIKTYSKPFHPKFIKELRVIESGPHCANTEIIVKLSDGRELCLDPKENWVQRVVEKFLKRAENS

Interleukin-8 [18] = biological target: T6, Interleukin-8; assay: Dose Response confirmation of uHTS small molecule hits for cystic fibrosis induced NFkb Inhibitors in a PAF-induced IL8 counterscreen.; type: functional; details: read-out: IC50_Mean
[19] = inhibitors of PGC1a acetylation in cells, dose response, cell-based, cherry-picked samples (AID 720514); type: functional;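 note: potency may reflect raised or lowered acetylation signal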
[20] = biological target: Matrix metalloproteinase-14 (Homo sapiens, UniProt P50281); assay: Dose Response confirmation of uHTS hits for a small molecule inhibitors of MT1-MMP activation in a fluorescence assay set 1.; type: functional
[21] = biological target: T7, Calpain-2 catalytic subunit (Sus scrofa, UniProt P43367); assay: pig calpain II inhibitor potency, dose response, biochemical, fluorogenic peptide substrate (AID 1420); type: functional
T7 sequence (P43367 whole entry): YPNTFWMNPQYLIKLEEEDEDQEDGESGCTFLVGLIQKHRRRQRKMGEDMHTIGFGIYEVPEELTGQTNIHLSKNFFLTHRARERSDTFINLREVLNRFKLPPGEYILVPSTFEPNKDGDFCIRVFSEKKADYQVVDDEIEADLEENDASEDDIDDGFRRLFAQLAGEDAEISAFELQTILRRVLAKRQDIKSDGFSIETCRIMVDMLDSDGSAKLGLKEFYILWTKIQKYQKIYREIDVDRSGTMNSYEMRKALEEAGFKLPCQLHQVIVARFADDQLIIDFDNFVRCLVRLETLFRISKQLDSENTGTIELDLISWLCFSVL

[22] = biological target: Mitochondrial peptide methionine sulfoxide reductase (Bos taurus, UniProt P54149); type: functional;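 note: absorbance read-out, biochemical high-throughput dose-response screen for MsrA inhibitors, confirmatory; recombinant bovine MsrA coupled to E. coli TrxB with NADPH and selenocystamine; potency is for inhibitors of MsrA activity on DMSO substrate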
Mitochondrial peptide methionine sulfoxide reductase, sequence (P54149 whole entry): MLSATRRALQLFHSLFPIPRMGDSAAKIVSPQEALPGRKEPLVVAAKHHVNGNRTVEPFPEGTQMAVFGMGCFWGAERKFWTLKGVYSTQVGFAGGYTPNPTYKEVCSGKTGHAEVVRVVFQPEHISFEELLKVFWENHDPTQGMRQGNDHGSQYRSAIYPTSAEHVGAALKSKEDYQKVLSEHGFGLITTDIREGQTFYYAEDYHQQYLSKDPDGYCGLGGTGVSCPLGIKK

[23] = biological target: ADP-ribosylation factor GTPase-activating protein 1 (Rattus norvegicus, UniProt Q62848); assay: Fluorescence polarization-based biochemical high throughput dose response screening assay to identify inhibitors of ADP-ribosylation factor GTPase activating protein 1 (ARFGAP1).; type: functional
ADP-ribosylation factor GTPase-activating protein 1, sequence (Q62848 whole entry, the tested form may be a part): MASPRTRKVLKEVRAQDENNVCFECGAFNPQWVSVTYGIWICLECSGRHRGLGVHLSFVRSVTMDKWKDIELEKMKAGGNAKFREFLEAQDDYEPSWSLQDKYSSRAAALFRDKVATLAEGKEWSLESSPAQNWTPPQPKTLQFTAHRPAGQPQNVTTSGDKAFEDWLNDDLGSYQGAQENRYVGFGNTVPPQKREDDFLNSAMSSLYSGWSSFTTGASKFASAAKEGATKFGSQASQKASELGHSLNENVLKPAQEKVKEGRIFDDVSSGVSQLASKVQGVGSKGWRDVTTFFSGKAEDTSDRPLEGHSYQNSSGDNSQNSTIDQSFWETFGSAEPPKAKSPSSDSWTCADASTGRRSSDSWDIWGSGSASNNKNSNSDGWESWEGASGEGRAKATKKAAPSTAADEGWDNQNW

[24] = biological target: Arf-GAP with SH3 domain, ANK repeat and PH domain-containing protein 1 (Homo sapiens, UniProt Q9ULH1); type: functional;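 note: biochemical fluorescence polarization dose–response screen measuring inhibition of ASAP1; ASAP1 GAP domain stimulating GTP hydrolysis by truncated human ARF1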
Arf-GAP with SH3 domain, ANK repeat and PH domain-containing protein 1, sequence (Q9ULH1 whole entry, the tested form may be a part): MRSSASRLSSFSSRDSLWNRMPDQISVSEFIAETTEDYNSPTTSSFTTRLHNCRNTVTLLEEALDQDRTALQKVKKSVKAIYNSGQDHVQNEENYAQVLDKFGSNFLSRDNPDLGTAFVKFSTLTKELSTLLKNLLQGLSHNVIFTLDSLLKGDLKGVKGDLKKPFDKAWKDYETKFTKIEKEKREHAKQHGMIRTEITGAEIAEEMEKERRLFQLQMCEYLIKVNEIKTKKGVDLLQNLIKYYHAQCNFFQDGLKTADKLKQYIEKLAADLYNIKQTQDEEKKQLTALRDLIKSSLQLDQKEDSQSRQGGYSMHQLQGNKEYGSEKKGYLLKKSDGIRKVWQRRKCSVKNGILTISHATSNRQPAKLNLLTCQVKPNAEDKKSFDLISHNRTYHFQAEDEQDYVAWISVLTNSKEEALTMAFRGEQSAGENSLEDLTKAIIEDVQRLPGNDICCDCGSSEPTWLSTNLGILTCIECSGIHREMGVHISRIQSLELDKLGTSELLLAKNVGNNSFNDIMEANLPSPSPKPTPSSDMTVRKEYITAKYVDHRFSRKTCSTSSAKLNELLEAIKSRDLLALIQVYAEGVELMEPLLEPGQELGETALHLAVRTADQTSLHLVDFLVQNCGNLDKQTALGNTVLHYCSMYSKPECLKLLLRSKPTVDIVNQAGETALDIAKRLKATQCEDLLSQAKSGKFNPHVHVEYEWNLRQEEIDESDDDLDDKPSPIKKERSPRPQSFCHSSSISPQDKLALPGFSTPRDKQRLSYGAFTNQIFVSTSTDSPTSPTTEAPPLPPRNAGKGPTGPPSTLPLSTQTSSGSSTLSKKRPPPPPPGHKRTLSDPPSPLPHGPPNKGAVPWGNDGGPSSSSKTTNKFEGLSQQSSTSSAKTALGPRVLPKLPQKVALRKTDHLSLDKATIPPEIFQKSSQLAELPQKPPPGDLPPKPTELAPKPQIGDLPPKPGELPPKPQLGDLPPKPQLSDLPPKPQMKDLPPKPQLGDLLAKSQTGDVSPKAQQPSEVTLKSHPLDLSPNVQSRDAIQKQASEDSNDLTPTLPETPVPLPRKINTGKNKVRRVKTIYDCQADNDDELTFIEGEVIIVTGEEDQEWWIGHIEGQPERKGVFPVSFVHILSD

Cc1cc(C(C)(C)C)cc(S(=O)(=O)NCCc2ccncc2)c1C
AC50 [1]: 0.598 µM (active)

Cc1ccc(N2C(=O)[C@@H]3C(c4ccc(F)cc4)=NO[C@@H]3C2=O)cc1
EC50 [2]: > 100 µM (inactive)

COCCOC(=O)c1c(N)n(Cc2ccco2)c2nc3ccccc3nc12
AC50 [3]: 130 µM (active)

CCOC(=O)c1cnc2c(ccc3ccccc32)c1NCCN(C)C
AC50 [4]: 55.9 µM (active)
AC50 [5]: 9.73 µM (active)
AC50 [6]: 6.71 µM (active)

CCOc1cc2c3c(c1)C1(C(=O)N3C(C)(C)CC2C)C(C#N)=C(N)N2C(=C1C#N)Nc1ccccc12 (configuration not stated)
CC50 [7]: > 40 µM (active)
AC50 [8]: 10 µM (active)
AC50 [9]: 2.23 µM (active)

O=C(Nc1ccccc1N1CCCC1)c1cc(Cl)ccc1Cl
AC50 [10]: < 0.009 µM (active)
AC50 [11]: 0.009 µM (active)

CCC(=O)c1ccc(OCC(O)CN2CCN(c3ccccn3)CC2)cc1 (configuration not stated)
EC50 (Mu-type opioid receptor): 92.5 µM (inactive)
EC50 [12]: 0.306 µM (active)

C=CCOC(=O)c1cc(-c2ccc(/C=C3\C(=O)NC(=O)C(C#N)=C3C)o2)ccc1Cl
IC50 (Ephrin type-A receptor 4): 1.45 µM (active)
IC50 [13]: 1.2 µM (active)
IC50 [14]: 12.8 µM (active)
IC50 [15]: 5 µM (active)
IC50 [16]: 229 µM (active)

CCCN(CC)c1[nH]cnc2nncc1-2
AC50 (HEK293): 9.96 µM (active)
IC50 (Interleukin-8 [17]): 42.3 µM (inactive)
IC50 (Interleukin-8 [18]): 9.12 µM (active)
AC50 [19]: 3.26 µM (active)

Cc1ccc(S(=O)(=O)/N=C2\C=C(NS(=O)(=O)c3ccccc3)C(=O)c3ccccc32)c(C)c1
IC50 [20]: 14 µM (active)

CCOC(=O)C/C(C)=N\Nc1ccc([N+](=O)[O-])cc1[N+](=O)[O-]
IC50 [21]: 23 µM (not active)
IC50 [22]: 155 µM (inactive)

COc1cc(/C=N\NC(=O)c2ccc(C)nc2)ccc1OC(=O)c1ccc2c(c1)OCO2
IC50 [23]: 21 µM (inactive)
IC50 [24]: 24.8 µM (inactive)
